Patent US6548496B2, “Substituted 3-cyano-[1.7], [1.5], and [1.8] naphthyridine inhibitors of tyrosine kinases” (American Cyanamid Company, priority 1999, dated 2003)

How the values were obtained:
[1] = target: T1, recombinant human MEK 1 (MAPKK) / human ERK2 (MAPK) (Homo sapiens, UniProt P28482+Q02750); experiment: Mitogen Activated Protein Kinase (MAPK) coupled Mek-Erk assay; format: biochemical; details: coupled MEK 1/ERK2 assay, 33P ATP; read-out: IC50, inhibition of Mitogen Activated Protein Kinase (Mek-Erk)
T1 construct: The recombinant enzymes used were prepared as GST fusion proteins of human ERK 2 and human MEK 1
Description: To evaluate inhibitors of the MAP (mitogen activated protein) kinase a two component coupled standard pharmacological test procedure, which measures phosphorylation of a serine/threonine residue in an appropriate sequence in the substrate in the presence and absence of a putative inhibitor, was used. Recombinant human MEK 1 (MAPKK) was first used to activate recombinant human ERK2 (MAPK) and the activated MAPK (ERK) was incubated with substrate (MEP peptide or MYC peptide) in the presence of ATP, Mg^+2 and radiolabeled ^33P ATP. The phosphorylated peptide was captured on a P 81 phosphocellulose filter (paper filter or embedded in microtiter plate) washed and counted by scintillation methods. […]
The reaction was run as follows in 50 mM Tris kinase buffer, pH 7.4 in a reaction volume of 50 ul. […] The filters or MTP were briefly air dried before addition of scintillant and samples were counted in the appropriate scintillation counter set up for reading ^33P isotope. […]
The raw data was captured as cpm Sample replicates were averaged and corrected for background count. Mean cpm data was tabulated by group and % inhibition by a test compound was calculated as (corrected cpm control-corrected. cpm sample/control)×100=% inhibition. […]

[2] = test system: A431; experiment: Inhibition of cancer cell growth by cell number, A431; format: cell-based, Human; details: 48 hours exposure, Sulforhodamine B
Description: (§1) Human tumor cell lines were plated in 96-well plates (250 μl/well, 1-6×10^4 cells/ml) in RPMI 1640 medium, containing 5% FBS (Fetal Bovine Serum). […] After 48 hours exposure to test compounds, cells were fixed with trichloroacetic acid, and stained with Sulforhodamine B. After washing with trichloroacetic acid, bound dye was solubilized in 10 mM Tris base and optical density was determined using a plate reader. Under conditions of the assay the optical density is proportional to the number of cells in the well. IC50s (concentrations causing 50% inhibition of cell growth) were determined from the growth inhibition plots. The test procedure is described in details by Philip Skehan et. at J. Natl. Canc. Inst., 82, 1107-1112 (1990). […] Information about some of the cell lines used in these test procedures is available from the American […]: Cell Lines and Hybridomas, 1994 Reference Guide, 8th Edition. The Her2Neu cell line is a 3T3 line that has bbeen transfected with Her2 receptor kinase.

[3] = test system: SKBR3; experiment: Inhibition of cancer cell growth by cell number, SKBR3; format: cell-based, Human; details: 48 hours exposure, Sulforhodamine B
Description: as §1

[4] = test system: A2780S; experiment: Inhibition of cancer cell growth by cell number, A2780S; format: cell-based, Human; details: 48 hours exposure, Sulforhodamine B
Description: as §1

[5] = test system: MDA435; experiment: Inhibition of cancer cell growth by cell number, MDA435; format: cell-based, Human; details: 48 hours exposure, Sulforhodamine B
Description: as §1

[6] = test system: A2780DDP; experiment: Inhibition of cancer cell growth by cell number, A2780DDP; format: cell-based, Human; details: 48 hours exposure, Sulforhodamine B
Description: as §1

[7] = test system: LOX; experiment: Inhibition of cancer cell growth by cell number, LOX; format: cell-based, Human; details: 48 hours exposure, Sulforhodamine B
Description: as §1

[8] = test system: SW620; experiment: Inhibition of cancer cell growth by cell number, SW620; format: cell-based, Human; details: 48 hours exposure, Sulforhodamine B
Description: as §1

T1 sequence (P28482 2-360): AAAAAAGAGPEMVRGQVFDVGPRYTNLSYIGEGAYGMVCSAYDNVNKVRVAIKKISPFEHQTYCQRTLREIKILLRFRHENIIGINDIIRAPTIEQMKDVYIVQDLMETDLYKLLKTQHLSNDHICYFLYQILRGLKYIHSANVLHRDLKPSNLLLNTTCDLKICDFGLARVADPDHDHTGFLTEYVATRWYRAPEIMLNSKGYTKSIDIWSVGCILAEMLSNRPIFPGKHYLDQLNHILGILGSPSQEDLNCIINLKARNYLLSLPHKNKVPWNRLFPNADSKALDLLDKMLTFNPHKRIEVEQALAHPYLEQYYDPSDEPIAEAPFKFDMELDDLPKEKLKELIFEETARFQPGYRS
T1 sequence (Q02750 whole entry, the tested form may be a part): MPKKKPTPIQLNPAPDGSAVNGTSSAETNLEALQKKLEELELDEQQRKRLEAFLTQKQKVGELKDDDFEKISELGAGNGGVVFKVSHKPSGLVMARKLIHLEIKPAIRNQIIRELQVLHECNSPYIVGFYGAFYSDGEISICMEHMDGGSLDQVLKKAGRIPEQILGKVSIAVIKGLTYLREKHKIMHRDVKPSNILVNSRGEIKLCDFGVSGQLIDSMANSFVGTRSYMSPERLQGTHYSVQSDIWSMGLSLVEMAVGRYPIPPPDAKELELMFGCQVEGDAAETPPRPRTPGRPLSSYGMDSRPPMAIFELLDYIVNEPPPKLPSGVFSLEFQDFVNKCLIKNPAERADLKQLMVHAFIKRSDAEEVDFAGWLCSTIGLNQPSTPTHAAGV

Molecule	IC50 [1]	IC50, inhibition of cell growth, A431 [2]	IC50, inhibition of cell growth, SKBR3 [3]	IC50, inhibition of cell growth, A2780S [4]	IC50, inhibition of cell growth, MDA435 [5]	IC50, inhibition of cell growth, A2780DDP [6]	IC50, inhibition of cell growth, LOX [7]	IC50, inhibition of cell growth, SW620 [8]
N#Cc1cnc2ncc([N+](=O)[O-])cc2c1Nc1cccc(Br)c1 [Example 21, 4-(3-Bromo-phenylamino)-6-nitro-[1,8]naphthyridine-3-carbonitrile]	10 µM	–	–	–	–	–	–	–
1-[4-(3-Bromo-phenylamino)-3-cyano-[1,7]naphthyridin-6-yl]-4-diethylamino-pyridinium Fluoride [Example 65]	–	59 µg/mL	41 µg/mL	31 µg/mL	47 µg/mL	52 µg/mL	56 µg/mL	42 µg/mL
